Experimental findings from publication PMC8205030, “Methoxy and bromo scans on N-(5-methoxyphenyl) methoxybenzenesulphonamides reveal potent cytotoxic compounds, especially against the human breast adenocarcinoma MCF7 cell line” (Journal of Enzyme Inhibition and Medicinal Chemistry, 2021) are described below.

Data set [1] deals with MCF7 (human breast carcinoma) cells. The data set is described as follows: Cell growth assay (XTT), MCF7. As to conditions: for IC50: Homo sapiens, MCF7, 72 h drug exposure, XTT, read-out: Antiproliferative activity IC50 MCF7. Type of data set: cell-based. How it is done: (§1) The presence of mycoplasma was routinely checked with MycoAlert kit (Lonza-Cambrex) and only mycoplasma-free cells were used in the experiments. Tumour cell lines were kindly provided by Dr Faustino Mollinedo from Centro de Investigaciones Biológicas Margarita Salas, Madrid, Spain. To determine cell growth, cells in exponential growth phase were seeded (100 µL/well in 96-well plates) with appropriate cell concentration (1.5 × 10^4 cells/mL for MCF7, HeLa and HEK-293 and 3 × 10^4 cells/mL for HT-29) in complete DMEM or RPMI 1640 medium (see above) at 37 °C and 5% CO2 atmosphere. After 24 h incubation, to allow cells to attach to the plates, all compounds were added at 1 µM concentration (10 µL/well in 96-well plates) and the effect on the proliferation was evaluated 72 h post-treatment. Compounds showing antiproliferative effects at tested concentration were selected for IC50 calculation (50% inhibitory concentration compared to the untreated controls) from 10^−5 to 10^−10 M concentration. Nonlinear curves fitting the experimental data were carried out for each compound. […] A freshly prepared mixture solution of XTT labelling reagent with 0.02% (v/v) PMS (N-methyl-dibenzopyrazine methyl sulfate) electron coupling reagent was added to cells (50 µL/well in 96-well plates, the total volume of 160 µL/well) and were incubated during the corresponding time according to each cell line (4 h for MCF7 and HeLa and 6 h for HT-29 and HEK-293) in a humidified atmosphere (37 °C, 5% CO2). The absorbance of the formazan product generated was measured at a test wavelength of 450 nm using a multi-well plate reader (Ultra Evolution, Tecan, Männedorf, Suiza). Compounds were dissolved in DMSO and the final solvent concentrations never exceeded 0.5% (v/v). The control wells included treated cells with 0.5% (v/v) DMSO and the positive control. 10 µM verapamil was included as a control for the HT-29 cell line. Measurements were performed in triplicate, and each experiment was repeated three times.
(Tetrazolium dyes change colour on reduction, which living cells bring about.)

Data set [2] has as its system HeLa (human cervical carcinoma) cells. The data set is described as follows: Cell growth assay (XTT), HeLa. The note with it: 72 h drug exposure, read-out: Antiproliferative activity IC50 HeLa. In kind it is cell-based. The procedure:
as §1

For data set [3], the target named is T1, microtubular protein isolated from calf brain (Bos taurus, UniProt P81947+Q6B856).
T1 construct: isolated from calf brain according to the modified Shelanski method; from tissue; host or cells: calf brain
The data set can be described thus: Inhibition of tubulin polymerisation (turbidity). In kind it is biochemical. The note with it: for TPI % 10 µM: 10 µM compound, 1.5 mg/mL microtubular protein; for IC50: in vitro tubulin polymerisation inhibition, read-out: TPI IC50. How it is done:
Microtubular protein was isolated from calf brain according to the modified Shelanski method[23]^,[24] by two cycles of temperature-dependent assembly/disassembly and stored at −80 °C. Before each use, protein concentration is determined by Bradford method[25] taking BSA as standard. Tubulin polymerisation was monitored using a Helios α spectrophotometer by measuring the increase in turbidity at 450 nm, caused by a shift from 4 °C to 37 °C, which allows the in vitro microtubular protein to depolymerise and to polymerise, respectively. The assay was carried out in quartz cuvettes containing 1.5 mg/mL microtubular protein and the ligand (except for control cuvette with only DMSO at the same concentration) in a mixture of 0.1 M MES buffer, 1 mM EGTA, 1 mM MgCl2, 1 mM β-ME, and 1.5 mM GTP at pH 6.7 (final volume 500 µL). Cuvettes were preincubated at 20 °C for 30 min, to allow ligand binding to tubulin, and subsequently cooled on ice for 10 min. Then, the experiment starts at 4 °C to establish the initial baseline. The assembly process was initiated by a temperature shift to 37 °C and the turbidity produced by tubulin polymerisation can be measured by an absorbance increase. After reaching a stable plateau, the temperature was switched back to 4 °C to return to the initial absorption values (to confirm the reversible nature of the monitored process and to determine whether or not the microtubular protein has stabilized). The difference in amplitude between the stable plateau and the initial baseline of the curves was taken as the degree of tubulin polymerisation for each experiment. […] All compounds were tested at 10 µM concentration. IC50 values were calculated for compounds that inhibit tubulin polymerisation more than 50% at 10 µM. […] All the measurements were carried out in at least two independent experiments using microtubular protein from different preparations.

The test system of data set [4] is HT-29 (human colon carcinoma) cells. The data set is described as follows: Cell growth assay (XTT), HT-29, alone or with verapamil. Type of data set: cell-based. The procedure: as §1, with “Compounds showing antiproliferative effects at tested concentration were selected for IC50 calculation (50% inhibitory concentration compared to the untreated controls) from 10^−5 to 10^−10 M concentration.” left out

The mark [5] stands for this setting: Homo sapiens, HT-29, 72 h drug exposure, XTT, read-out: Antiproliferative activity IC50 HT-29.
The mark [6] stands for this setting: 72 h, in the presence of Pgp/MDR1 inhibitor verapamil (10 µM), read-out: Antiproliferative activity IC50 HT-29 Verap.

Each structure is given as a SMILES string. Where two headings read alike, the source gives them in different places.

T1 sequence (Q6B856 whole entry): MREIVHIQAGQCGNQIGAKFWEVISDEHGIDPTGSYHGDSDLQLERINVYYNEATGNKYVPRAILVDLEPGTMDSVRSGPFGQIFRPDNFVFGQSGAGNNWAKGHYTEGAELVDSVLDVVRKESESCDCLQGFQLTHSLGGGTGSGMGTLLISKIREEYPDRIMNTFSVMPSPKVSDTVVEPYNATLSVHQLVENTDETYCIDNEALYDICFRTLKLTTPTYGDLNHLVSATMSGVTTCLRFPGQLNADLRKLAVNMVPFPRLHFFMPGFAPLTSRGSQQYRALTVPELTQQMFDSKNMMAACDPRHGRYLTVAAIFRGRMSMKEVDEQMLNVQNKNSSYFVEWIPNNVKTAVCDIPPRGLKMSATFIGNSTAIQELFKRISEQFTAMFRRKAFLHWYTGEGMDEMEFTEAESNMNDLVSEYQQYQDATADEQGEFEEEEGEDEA
T1 sequence (P81947 whole entry): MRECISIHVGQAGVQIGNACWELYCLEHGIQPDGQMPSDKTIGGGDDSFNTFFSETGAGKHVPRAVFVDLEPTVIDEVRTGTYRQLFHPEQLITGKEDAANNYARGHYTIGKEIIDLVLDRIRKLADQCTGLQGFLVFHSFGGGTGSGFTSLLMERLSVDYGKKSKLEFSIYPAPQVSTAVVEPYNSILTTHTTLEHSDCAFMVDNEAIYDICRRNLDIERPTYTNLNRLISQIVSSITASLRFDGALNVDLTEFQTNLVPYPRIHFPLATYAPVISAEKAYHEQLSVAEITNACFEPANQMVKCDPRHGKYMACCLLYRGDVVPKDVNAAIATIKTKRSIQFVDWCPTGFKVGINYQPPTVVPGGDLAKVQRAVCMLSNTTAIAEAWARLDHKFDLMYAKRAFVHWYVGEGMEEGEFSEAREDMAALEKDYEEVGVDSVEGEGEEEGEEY

The term IC50 denotes the concentration needed to halve the response being measured. As for `COc1ccc(S(=O)(=O)Nc2cccnc2Nc2ccc(O)cc2)cc1` [ABT-751, reference compound], the IC50 turned out to be 180 nM in data set [1], 388 nM in data set [2] and 4400 nM in data set [3]. Further, the “TPI % 10 µM” value in data set [3] turned out to be 69%.

The melting point is the temperature of the solid-liquid transition. Turning to `COc1ccc(S(=O)(=O)Nc2cc(OC)cc(OC)c2)cc1` [Compound 1, N-(3,5-dimethoxyphenyl)-4-methoxybenzenesulphonamide], the melting point was 115 to 122 °C. In addition, the IC50 in data set [1] was > 1000 nM. Moreover, the IC50 in data set [2] was > 1000 nM. In addition, the IC50 in data set [4] (setting [5]) was > 1000 nM. In data set [3], the “TPI % 10 µM” value was 0% and the IC50 was > 10000 nM.

Compound `CCN(c1cc(OC)cc(OC)c1)S(=O)(=O)c1ccc(OC)cc1` [Compound 3, N-(3,5-dimethoxyphenyl)-N-ethyl-4-methoxybenzenesulphonamide] gave a melting point of 109 to 118 °C. Also, in data set [1], the IC50 was > 1000 nM. Moreover, in data set [2], the IC50 was > 1000 nM. Besides, the IC50 in data set [4] (setting [5]) is > 1000 nM. For the same compound, in data set [3], the “TPI % 10 µM” value came out at 0% and the IC50 is > 10000 nM.

With `CCOC(=O)CN(c1cc(OC)cc(OC)c1)S(=O)(=O)c1ccc(OC)cc1` [Compound 5, Ethyl N-(3,5-dimethoxyphenyl)-N-((4-methoxyphenyl)sulphonyl)glycinate], the IC50 in data set [1] is > 1000 nM; in data set [2], > 1000 nM; in data set [4] (setting [5]) it was > 1000 nM; in data set [3], > 10000 nM. Moreover, the “TPI % 10 µM” value in data set [3] is listed as 0%.

In the case of `COc1ccc(S(=O)(=O)N(C)c2cc(OC)c(Br)c(OC)c2)cc1` [Compound 8a, N-(4-bromo-3,5-dimethoxyphenyl)-4-methoxy-N-methylbenzenesulphonamide], the IC50 was 99 nM in data set [1]; 497 nM in data set [2]; 293 nM in data set [4] (setting [6]); 495 nM in data set [4] (setting [5]); > 10000 nM in data set [3]. Further, the “Fold more potent against MCF7 than against HeLa” value in data set [1] (ratio of IC50 values) is on record as 4–7 fold. In data set [3], the “TPI % 10 µM” value came to 10%.

As for `CCN(c1cc(OC)c(Br)c(OC)c1)S(=O)(=O)c1ccc(OC)cc1` [Compound 9a, N-(4-bromo-3,5-dimethoxyphenyl)-N-ethyl-4-methoxybenzenesulphonamide], the concentration for half-maximal inhibition (IC50) is 417 nM in data set [2], 610 nM in data set [4] (setting [5]) and > 10000 nM in data set [3]. Also, the “TPI % 10 µM” value in data set [3] is reported as 0%.

With `COc1ccc(S(=O)(=O)N(Cc2ccccc2)c2cc(OC)c(Br)c(OC)c2)cc1` [Compound 10a, N-benzyl-N-(4-bromo-3,5-dimethoxyphenyl)-4-methoxybenzenesulphonamide], the half-maximal inhibitory concentration (IC50) is 335 nM in data set [1]; 310 nM in data set [2]; 533 nM in data set [4] (setting [6]); 450 nM in data set [4] (setting [5]); > 10000 nM in data set [3]. Moreover, the “TPI % 10 µM” value in data set [3] came to 0%.

Regarding `COc1ccc(S(=O)(=O)N(Cc2ccccc2)c2cc(OC)cc(OC)c2Br)cc1` [Compound 10b, N-benzyl-N-(2-bromo-3,5-dimethoxyphenyl)-4-methoxybenzenesulphonamide], the IC50 in data set [1] was > 1000 nM; in data set [2], > 1000 nM; in data set [4] (setting [5]), > 1000 nM; in data set [3], > 10000 nM. Moreover, the “TPI % 10 µM” value in data set [3] is 0%.

Consider `COc1ccc(S(=O)(=O)N(Cc2ccccc2)c2cc(OC)c(Br)c(OC)c2Br)cc1` [Compound 10c, N-benzyl-N-(2,4-dibromo-3,5-dimethoxyphenyl)-4-methoxybenzenesulphonamide], for which the 50% inhibitory concentration (IC50) is > 1000 nM in data set [1], > 1000 nM in data set [2], > 1000 nM in data set [4] (setting [5]) and > 10000 nM in data set [3]. Also, the “TPI % 10 µM” value in data set [3] was found to be 0%.

As for `CCOC(=O)CN(c1cc(OC)c(Br)cc1OC)S(=O)(=O)c1ccc(OC)cc1` [Compound 26, Ethyl N-(4-bromo-2,5-dimethoxyphenyl)-N-((4-methoxyphenyl)sulphonyl)glycinate], the IC50 in data set [1] was 700 nM; in data set [2] it was 577 nM; in data set [4] (setting [6]), 867 nM; in data set [4] (setting [5]), 2100 nM; in data set [3], > 10000 nM. Also, in data set [3], the “TPI % 10 µM” value worked out at 28%.

In the case of `CCOC(=O)N(c1cc(OC)c(Br)cc1OC)S(=O)(=O)c1ccc(OC)cc1` [Compound 27, Ethyl (4-bromo-2,5-dimethoxyphenyl)((4-methoxyphenyl)sulphonyl)carbamate], the IC50 is 220 nM in data set [1]; 377 nM in data set [2]; 170 nM in data set [4] (setting [6]); 525 nM in data set [4] (setting [5]); > 10000 nM in data set [3]. For the same compound, the “Difference in HT-29 IC50 values from co-treatment with MDR inhibitor” value in data set [4] (without vs with verapamil 10 µM) is given as “higher than 3 fold”. For the same compound, in data set [3], the “TPI % 10 µM” value is 44%.

`COc1ccc(S(=O)(=O)N(CC2CO2)c2cc(OC)c(Br)cc2OC)cc1` (stereo not drawn) [Compound 28, N-(4-bromo-2,5-dimethoxyphenyl)-4-methoxy-N-(oxiran-2-ylmethyl)benzenesulphonamide]: the IC50 in data set [2] was 495 nM; in data set [4] (setting [5]), 860 nM; in data set [3], > 10000 nM. For the same compound, in data set [3], the “TPI % 10 µM” value turned out to be 32%.

In the case of `COc1ccc(S(=O)(=O)N(Cc2ccccc2)c2cc(OC)c(OC)cc2OC)cc1` [Compound 37, N-benzyl-4-methoxy-N-(2,4,5-trimethoxyphenyl)benzenesulphonamide], the melting point was 130 to 139 °C. Also, in data set [2], the 50% inhibitory concentration (IC50) worked out at 833 nM. The IC50 in data set [4] (setting [5]) was 1250 nM. In addition, in data set [3], the “TPI % 10 µM” value was 7% and the IC50 was > 10000 nM.

In the case of `COc1ccc(S(=O)(=O)Nc2cc(OC)c(OC)c(OC)c2)cc1` [TMP[41], N-(3,4,5-trimethoxyphenyl)-4-methoxyphenylsulphonamide, reference compound], the IC50 amounted to 240 nM in data set [2] and 975 nM in data set [4] (setting [6]).
